Results as given in publication PMC3857490, “Discovery of a metabolic alternative to the classical mevalonate pathway” (eLife, 2013).

Assays:
Assay in all cases: pyruvate kinase-lactate dehydrogenase coupled assay
PMK from S. solfataricus = biological target: T1, PMK from S. solfataricus (Saccharolobus solfataricus, UniProt Q97UL6); format: biochemical; conditions: co-substrate ATP; Ki from the fit of the substrate's own saturation curve (substrate inhibition); racemic (RS)-MVAP
T1 construct: gene SSO2988; full length, N-terminal thrombin-cleavable 8-His tag (pET28a), E. coli BL21(DE3)
T1 sequence (Q97UL6 1-323): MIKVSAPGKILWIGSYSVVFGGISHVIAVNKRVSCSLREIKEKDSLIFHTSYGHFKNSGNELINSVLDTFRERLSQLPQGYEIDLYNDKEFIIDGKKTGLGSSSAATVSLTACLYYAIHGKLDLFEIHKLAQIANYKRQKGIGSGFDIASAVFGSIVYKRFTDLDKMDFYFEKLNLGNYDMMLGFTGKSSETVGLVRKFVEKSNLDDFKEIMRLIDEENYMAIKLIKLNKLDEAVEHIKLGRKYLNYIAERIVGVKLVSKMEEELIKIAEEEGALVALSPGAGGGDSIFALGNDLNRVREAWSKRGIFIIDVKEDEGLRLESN
Text: (§1) pyruvate kinase-lactate dehydrogenase coupled assay on PMK from S. solfataricus

MDD from A. thaliana = biological target: T2, MDD from A. thaliana (Arabidopsis thaliana, UniProt O23722); format: biochemical; conditions: co-substrate ATP; racemic (RS)-MVAPP
T2 construct: gene MVD1; synthetic gene, thrombin-cleavable 9-His tag (pHIS9GW), E. coli BL21(DE3)
T2 sequence (O23722 1-412): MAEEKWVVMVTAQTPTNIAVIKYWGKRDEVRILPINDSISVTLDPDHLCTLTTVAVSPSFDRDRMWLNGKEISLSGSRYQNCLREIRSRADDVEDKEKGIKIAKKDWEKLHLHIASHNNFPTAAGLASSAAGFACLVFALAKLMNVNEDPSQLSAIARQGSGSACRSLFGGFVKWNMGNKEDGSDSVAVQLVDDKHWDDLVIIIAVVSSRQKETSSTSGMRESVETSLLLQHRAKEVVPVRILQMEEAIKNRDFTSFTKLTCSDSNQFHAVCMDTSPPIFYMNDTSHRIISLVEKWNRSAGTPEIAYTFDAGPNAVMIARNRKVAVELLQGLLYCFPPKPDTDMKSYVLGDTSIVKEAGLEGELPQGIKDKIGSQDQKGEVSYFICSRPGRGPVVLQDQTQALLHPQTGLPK
Text: pyruvate kinase-lactate dehydrogenase coupled assay on MDD from A. thaliana

IPK from B. floridae [1] = biological target: T3, IPK from B. floridae (Branchiostoma floridae, UniProt A0A9J7KY69); format: biochemical; conditions: co-substrate ATP; Ki from the fit of the substrate's own saturation curve (substrate inhibition)
T3 construct: gene LOC118413305
T3 sequence (A0A9J7KY69 1-298): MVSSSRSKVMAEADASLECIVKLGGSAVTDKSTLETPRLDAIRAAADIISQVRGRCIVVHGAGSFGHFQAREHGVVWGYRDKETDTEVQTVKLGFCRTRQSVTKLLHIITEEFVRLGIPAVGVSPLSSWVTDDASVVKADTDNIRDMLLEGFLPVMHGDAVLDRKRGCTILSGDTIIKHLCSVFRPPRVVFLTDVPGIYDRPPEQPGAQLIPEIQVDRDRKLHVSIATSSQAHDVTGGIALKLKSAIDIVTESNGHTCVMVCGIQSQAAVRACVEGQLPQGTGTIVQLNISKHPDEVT
Text: pyruvate kinase-lactate dehydrogenase coupled assay on IPK from B. floridae

IPK from B. floridae [2] = biological target: T3, IPK from B. floridae; format: biochemical; conditions: co-substrate ATP; fit with substrate inhibition
IPK from T. adhaerens = biological target: T4, IPK from T. adhaerens (Trichoplax adhaerens, UniProt B3RKZ8); format: biochemical; conditions: co-substrate ATP; four IP concentrations, 2-100 µM
T4 construct: gene TRIADDRAFT_51825
T4 sequence (B3RKZ8 1-281): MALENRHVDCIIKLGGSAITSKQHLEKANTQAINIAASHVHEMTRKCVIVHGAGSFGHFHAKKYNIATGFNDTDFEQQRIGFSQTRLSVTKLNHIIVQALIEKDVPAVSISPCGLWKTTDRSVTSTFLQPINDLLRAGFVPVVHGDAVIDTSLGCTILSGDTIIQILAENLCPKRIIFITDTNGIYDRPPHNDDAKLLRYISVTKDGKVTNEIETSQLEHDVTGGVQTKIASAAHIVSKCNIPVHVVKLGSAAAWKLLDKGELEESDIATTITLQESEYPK

IPK from A. thaliana = biological target: T5, IPK from A. thaliana (Arabidopsis thaliana, UniProt Q8H1F7); format: biochemical; conditions: co-substrate ATP; Ki from the fit of the substrate's own saturation curve (substrate inhibition); four IP concentrations, 2-100 µM
T5 construct: synthetic gene, thrombin-cleavable 9-His tag (pHIS9GW), E. coli BL21(DE3)
T5 sequence (Q8H1F7 1-332): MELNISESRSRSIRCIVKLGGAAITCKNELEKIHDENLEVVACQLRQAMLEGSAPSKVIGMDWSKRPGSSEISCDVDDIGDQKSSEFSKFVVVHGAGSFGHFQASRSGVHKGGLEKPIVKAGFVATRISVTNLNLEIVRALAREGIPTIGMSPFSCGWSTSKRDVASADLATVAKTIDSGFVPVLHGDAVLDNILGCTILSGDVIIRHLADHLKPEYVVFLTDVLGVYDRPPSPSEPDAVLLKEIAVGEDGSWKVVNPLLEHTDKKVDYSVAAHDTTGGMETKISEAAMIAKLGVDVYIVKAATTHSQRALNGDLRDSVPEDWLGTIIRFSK

[3] = substrate: CC(O)(CCOP(=O)(O)O)CC(=O)O; format: biochemical, Roseiflexus castenholzii; conditions: co-substrate ATP, racemic (RS)-MVAP, below the organism's growth temperature (50 C and above)
Text: pyruvate kinase-lactate dehydrogenase coupled assay on MPD from R. castenholzii (annotated MDD)

[4] = substrate: CC(O)(CCOP(=O)(O)O)CC(=O)O; format: biochemical, Saccharolobus solfataricus; conditions: co-substrate ATP; racemic (RS)-MVAP; fit with substrate inhibition
Text: as §1

`CC(O)(CCOP(=O)(O)O)CC(=O)O` (racemic) [compound 3, phosphomevalonate] was tested, and the “Ki (μM)” value (PMK from S. solfataricus) was 5500 (± 2200) μM.

Work on `CC(O)(CCOP(=O)(O)OP(=O)(O)O)CC(=O)O` (racemic) [compound 5, diphosphomevalonate] yielded a Km (MDD from A. thaliana) of 15.7 µM.

In the case of `C=C(C)CCOP(=O)(O)O` [compound 4, isopentenyl phosphate], the “Ki (μM)” value (IPK from B. floridae [1]) is reported as 2820 (± 1700) μM, the Km (IPK from B. floridae [2]) is reported as 13.3 µM and the Km (IPK from T. adhaerens) is reported as 3.1 µM. For the same molecule, the “Ki (μM)” value (IPK from A. thaliana) was 522 (± 381) μM.

B1: MPD from R. castenholzii (annotated MDD) (Roseiflexus castenholzii DSM 13941) (protein)
chain: MYHRPLERMPGLATAIPAPYADLVERMATADADLRAALRAHGLTWEEYPDLTGAARERGAAAALAYPMQGVLKYHGLSDWDYRIAFLPSVSLCNDAGHTLTLVEFDPDLATDCATINGHVARGRELERVRQSLDAIRAASGATVRARVMSRNVTRGTRMGKGLGSSAAASAALALAAIAALYGDEAAANRRLVSCMARLLAGSGCRSAAGGCSIWFSSPGMPHEDSFAVRLDDAGQLDDVRLITVPLDSRIGLKTEQAHLDAPGSALFRCWMLSRRDEALACIAAARTGDWRTLGQWAELDSMRLHGITMSGSLENKLIGWEPENIVLFRMCNDLRSSGVPVYCSTDTGPTAVFITHRDYEDAVVSAIEGLGLSLEAIRGRVAGPARLVDIAWAGGELGVAD
notes: synthetic gene, 9-His tag removed with thrombin, E. coli BL21(DE3), Mono Q and Superdex 200
In the case of B1, the Km [3] is reported as 152 (± 38) μM, the kcat [3] is reported as 1.7 ± 0.1 s⁻¹ and the kcat/Km [3] is reported as 11000 ± 3000 M⁻¹ s⁻¹.

B2: PMK from S. solfataricus (Saccharolobus solfataricus P2) (protein)
chain: MIKVSAPGKILWIGSYSVVFGGISHVIAVNKRVSCSLREIKEKDSLIFHTSYGHFKNSGNELINSVLDTFRERLSQLPQGYEIDLYNDKEFIIDGKKTGLGSSSAATVSLTACLYYAIHGKLDLFEIHKLAQIANYKRQKGIGSGFDIASAVFGSIVYKRFTDLDKMDFYFEKLNLGNYDMMLGFTGKSSETVGLVRKFVEKSNLDDFKEIMRLIDEENYMAIKLIKLNKLDEAVEHIKLGRKYLNYIAERIVGVKLVSKMEEELIKIAEEEGALVALSPGAGGGDSIFALGNDLNRVREAWSKRGIFIIDVKEDEGLRLESN
notes: full length, N-terminal thrombin-cleavable 8-His tag (pET28a), E. coli BL21(DE3)
B2 was tested, and the Km [4] was 23.1 (± 3.8) μM, the kcat [4] was 1.98 ± 0.1 s⁻¹ and the kcat/Km [4] was 90000 ± 10000 M⁻¹ s⁻¹.
